# Values quoted from earlier work, collected in article PMC11020070, “Discovery of Protease-Activated Receptor 4 (PAR4)-Tethered Ligand Antagonists Using Ultralarge Virtual Screening” (ACS Pharmacology & Translational Science, 2024).
# Experiments:
# [1] = design: method as in PMID 35758258, PMID 23222541; details: phase I, healthy participants; cited from earlier work
# [2] = system: PAR4; design: method as in PMID 28053157; details: cited from earlier work
# [3] = system: PAR4; design: method as in PMID 27777004; details: read-out: IC50 against γ-thrombin; cited from earlier work
# [4] = biological target: T1, PAR1 (Homo sapiens, UniProt P25116); design: method as in PMID 22443427, PMID 22077816; details: cited from earlier work
# T1 construct: endogenous in cells; host or cells: platelets
# T1 sequence (P25116 22-425): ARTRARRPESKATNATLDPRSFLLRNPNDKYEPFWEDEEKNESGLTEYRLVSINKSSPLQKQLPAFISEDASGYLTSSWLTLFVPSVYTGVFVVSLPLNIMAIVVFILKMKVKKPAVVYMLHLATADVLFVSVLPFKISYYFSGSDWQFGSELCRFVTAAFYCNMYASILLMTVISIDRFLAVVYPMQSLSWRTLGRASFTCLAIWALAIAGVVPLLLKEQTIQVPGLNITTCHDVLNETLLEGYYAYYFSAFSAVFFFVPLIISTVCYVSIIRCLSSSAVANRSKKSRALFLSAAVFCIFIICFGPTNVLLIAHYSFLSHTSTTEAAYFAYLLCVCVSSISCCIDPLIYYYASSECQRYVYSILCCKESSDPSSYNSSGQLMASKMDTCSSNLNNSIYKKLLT
structure (smiles),measurement,setting,value
COc1cc(OCc2nc(N3CCOCC3)sc2C)c2cc(-c3cn4nc(OC)sc4n3)oc2c1 [BMS-986120],safety and tolerability,[1],safe and well tolerated
same,antithrombotic activity,[2]; cynomolgus monkey arterial thrombosis model,potent and highly efficacious antithrombotic activity
same,bleeding liability,[2]; nonhuman primate model,low bleeding liability
COc1nn2cc(-c3c(CO)n(Cc4ccccc4Cl)c4ccc(OC(F)(F)F)cc34)nc2s1 [Compound 6],IC50,[3],4.35 µM
CCOC(=O)N[C@@H]1CC[C@@H]2[C@@H](C1)C[C@H]1C(=O)O[C@H](C)[C@H]1[C@H]2/C=C/c1ccc(-c2cccc(F)c2)cn1 [vorapaxar],primary efficacy outcome,"[4]; added to standard care, acute coronary syndrome, phase 3",failed to meet its primary efficacy outcome
same,bleeding,"[4]; phase 3, especially intracranial hemorrhage",excess of major bleeding
